Test results taken from patent US10849875B2, “Cancer specific lipid targeted peptidomimetics” (University of Houston System, priority 2015, dated 2020).
Positions of bridges follow the written chain, without caps; N, C: chain ends. Non-standard residues stand in square brackets, D forms with d. Residues, ends and D or L forms follow the SMILES beside them. Chains are numbered I, II in the order given. Gly(N-piperonyl) = O=C(O)CNCc1ccc2c(c1)OCO2; N(4-MeOBn)Gly = COc1ccc(CNCC(=O)O)cc1; Nrpe = C[C@@H](NCC(=O)O)c1ccccc1; Nlys = NCCCCNCC(=O)O

Columns and labels:
HBEC3kt cells = test: MTS cell viability assay; format: cell-based, human; details: serial dilutions
Experimental: After confirming the binding and specificity of the PPS1 on HCC4017 lung cancer cells, whether this compound has any biological effects on HCC4017 lung cancer cells was assayed. The gold standard cell viability (MTS) assay was used. HCC4017 cells and HBEC30kt and HBEC3kt cells were grown in 96 well plates on day 1, then treated by serial dilution of PPS1 and control compound C462 on day 2, and the viable cell count was measured using MTS reagent on day 3. […] On one of the repetitive experiments of this assay, Cystinylated-PPS1 compound was included (FIG. 6A). This was the intermediate compound used to attach the FITC-malemide for binding assays described previously. […] The only difference between this Cystinylated-PPS1 and the original PPS1 compound was just a single cysteine amino acid at the C-terminal. […]
A homo-dimeric version of PPS1 was synthesized. […] The resulting dimeric version of the PPS1 compound, PPS1D1 (FIG. 6C), and the analogous dimeric versions of scrambled PC2, PC2D1 (FIG. 6E), and control compound C462, PC462D1 (FIG. 82), were then evaluated for activity. […] As described above, HCC4017 cells and HBEC30kt and HBEC3kt cells were grown in 96 well plates on day 1, treated serial dilutions of PPS1, PPS1D1, C462 and C462D1 on day 2, and viable cell count was measured using MTS reagent on day 3. […]

MTD studies of PPS1D1 = test: MTD studies of PPS1D1; parameters: species or system mice; details: mouse, in vivo
Experimental: […] (MTD) studies were performed by injecting PPS1D1 into mice. […] In vivo localization studies were performed with biotinylated versions of PPS1D1 and PC462D1. Animals were injected intravenously with 100 μL of biotinylated PPS1D1 or PC462D1 (500 μg/mL) and sacrificed at 1 and 4 h post injection. Tissue was collected, snap frozen, and sectioned and the presence of the PPS1D1 and PC462D1 determined by streptavidin-Cy3.

[1] = Lipid ELISA-like binding assay
Experimental: The direct binding of PPS1 to PS was tested. An ELISA-like assay was used. Two main lipids typically found on cell membrane, PS and PC, were immobilized separately on a 96-well plates and biotinylated PPS1 was incubated at an increasing concentration gradient. Presence of bound PPS1 was detected by HRP-streptavidin after appropriate blocking and washing. (FIG. 11A), PC was selected as the control because it is the most abundant neutral phospholipid found in the outer leaflet of the normal cell membranes. […] This indicates […] has specificity to PS over PC.
ELISA binding assay on PS and PC: PS and PC (Avanti Polar Lipids) were dissolved in hexane at 10 μg/ml concentration and added to Immulon 1B “U” bottom microtiter plates (Thermo) 50 μl/well. hexane was allowed to evaporate at room temp (in the hood). Plates were blocked by adding 200 μl 1% BSA in PBS to each well and incubated for 1 hour. Each well was washed with 3× w/200 μl PBS. Serial dilutions (0.5 μM to 0.0078 μM) of biotinylated PPS1 and PPS2 were dissolved in blocking buffer (100 μl/well) and incubated for 1 hr on shaker. Washed 5× w/200 μl PBS. Added 100 μl streptavidin-HRP (1:2000 in blocking buffer) to each well and incubated for 30 min. […] Stopped the reaction with 100 μl 0.18M H2SO4 Read OD at 490 nm.
Since PS is selectively exposed on the surface of HCC4017 cells compared with HBEC30KT, it was examined if PPS1D1 (FIG. 9B and FIG. 72) binds to PS directly. In an ELISA-like assay, PS and PC were coated separately on 96-well plates, biotinylated PPS1D1 (FIG. 65) was introduced in a concentration gradient and the bound compound was detected using standard streptavidin-HRP system.
Lipids (Avanti Polar Lipids) were dissolved in hexane at 10 μg/ml and coated on to Immulon 1B “U” bottom microtiter plates (ThermoFisher, MA). […] Plates were washed with 5× PBS and binding was detected with streptavidin-HRP (1:2000 in blocking buffer) followed by 100 μl OPD (Sigma-Aldrich). The reaction was stopped with 100 μl 0.18M H2SO4 and absorbance was read at 490 nm using the spectrophotometer (Spectramax i3, Molecular Devices, CA).

COc1ccc(CN(CC(=O)N(CCCCN)CC(=O)N[C@@H](CCCCN)C(=O)N[C@H](CCCCN)C(=O)N[C@@H](CCSC)C(=O)NCCCC[C@H](NC(=O)[C@H](CCSC)NC(=O)[C@@H](CCCCN)NC(=O)[C@H](CCCCN)NC(=O)CN(CCCCN)C(=O)CN(Cc2ccc(OC)cc2)C(=O)CN(C(=O)CN(Cc2ccc3c(c2)OCO3)C(=O)CN[C@H](C)c2ccccc2)[C@H](C)c2ccccc2)C(N)=O)C(=O)CN(C(=O)CN(Cc2ccc3c(c2)OCO3)C(=O)CN[C@H](C)c2ccccc2)[C@H](C)c2ccccc2)cc1 [PPS1D1] (I: H-[Nrpe][Gly(N-piperonyl)][Nrpe][N(4-MeOBn)Gly][Nlys]K[dK]MK-NH2 / II: H-[Nrpe][Gly(N-piperonyl)][Nrpe][N(4-MeOBn)Gly][Nlys]K[dK]M; amide I:9-II:C; N-terminus assumed)
activity on normal HBEC3kt cells (HBEC3kt cells): did not have any activity
MTD (MTD studies of PPS1D1; mice bearing subcutaneous HCC4017 xenografts): 1 mg/kg
MTD (MTD studies of PPS1D1; nontumor bearing animals): 5 mg/kg
binding to PC ([1]; PC-coated ELISA plates): very high specificity over the PC
binding to PS ([1]; PS-coated ELISA plates): strongest affinity
Kd ([1]; PS-coated ELISA plates, biotinylated compound, streptavidin-HRP): ~55 nM
